Measured values published in the supplement of paper PMC11451515.

Test system: NOMO1
Test: cell viability relative to DMSO control; higher = less cytotoxic
Conditions: 48 h
Procedure, shortened: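 Cells were incubated for 48 h at 37°C before CellTiter-Glo One luminescence was read. The cells were NOMO1 or SEM (500 cells/well) or P12-Ichikawa (1000 cells/well) leukemia cells, adapted for at least four passages in each medium and seeded in 1536-well plates (5 μl). Dosing used library compounds in DMSO applied by pin over 11 threefold points, 47 μM to 0.79 nM. Viability is the per-plate percentage of DMSO wells, with cell-free wells as background.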

[1] = RPMI 5 mM glucose + 10% FBS, 0.000781 µM
[2] = RPMI 5 mM glucose + 10% FBS, 0.00234 µM
[3] = RPMI 5 mM glucose + 10% FBS, 0.00702 µM
[4] = RPMI 5 mM glucose + 10% FBS, 0.0211 µM
[5] = RPMI 5 mM glucose + 10% FBS, 0.0632 µM
[6] = RPMI 5 mM glucose + 10% FBS, 0.19 µM
[7] = RPMI 5 mM glucose + 10% FBS, 0.569 µM
[8] = RPMI 5 mM glucose + 10% FBS, 1.71 µM
[9] = RPMI 5 mM glucose + 10% FBS, 5.12 µM
[10] = RPMI 5 mM glucose + 10% FBS, 15.4 µM
[11] = RPMI 5 mM glucose + 10% FBS, 46.1 µM
[12] = RPMI 5 mM glucose + 10% dialyzed FBS, 0.000781 µM
[13] = RPMI 5 mM glucose + 10% dialyzed FBS, 0.00234 µM
[14] = RPMI 5 mM glucose + 10% dialyzed FBS, 0.00702 µM
[15] = RPMI 5 mM glucose + 10% dialyzed FBS, 0.0211 µM
[16] = RPMI 5 mM glucose + 10% dialyzed FBS, 0.0632 µM
[17] = RPMI 5 mM glucose + 10% dialyzed FBS, 0.19 µM
[18] = RPMI 5 mM glucose + 10% dialyzed FBS, 0.569 µM
[19] = RPMI 5 mM glucose + 10% dialyzed FBS, 1.71 µM
[20] = RPMI 5 mM glucose + 10% dialyzed FBS, 5.12 µM
[21] = RPMI 5 mM glucose + 10% dialyzed FBS, 15.4 µM
[22] = RPMI 5 mM glucose + 10% dialyzed FBS, 46.1 µM
[23] = HPLM + 10% dialyzed FBS, 0.000781 µM
[24] = HPLM + 10% dialyzed FBS, 0.00234 µM
[25] = HPLM + 10% dialyzed FBS, 0.00702 µM
[26] = HPLM + 10% dialyzed FBS, 0.0211 µM
[27] = HPLM + 10% dialyzed FBS, 0.0632 µM
[28] = HPLM + 10% dialyzed FBS, 0.19 µM
[29] = HPLM + 10% dialyzed FBS, 0.569 µM
[30] = HPLM + 10% dialyzed FBS, 1.71 µM
[31] = HPLM + 10% dialyzed FBS, 5.12 µM
[32] = HPLM + 10% dialyzed FBS, 15.4 µM
[33] = HPLM + 10% dialyzed FBS, 46.1 µM

| SMILES | cell viability [1] [%] | cell viability [2] [%] | cell viability [3] [%] | cell viability [4] [%] | cell viability [5] [%] | cell viability [6] [%] | cell viability [7] [%] | cell viability [8] [%] | cell viability [9] [%] | cell viability [10] [%] | cell viability [11] [%] | cell viability [12] [%] | cell viability [13] [%] | cell viability [14] [%] | cell viability [15] [%] | cell viability [16] [%] | cell viability [17] [%] | cell viability [18] [%] | cell viability [19] [%] | cell viability [20] [%] | cell viability [21] [%] | cell viability [22] [%] | cell viability [23] [%] | cell viability [24] [%] | cell viability [25] [%] | cell viability [26] [%] | cell viability [27] [%] | cell viability [28] [%] | cell viability [29] [%] | cell viability [30] [%] | cell viability [31] [%] | cell viability [32] [%] | cell viability [33] [%] |
| --- | --- | --- | --- | --- | --- | --- | --- | --- | --- | --- | --- | --- | --- | --- | --- | --- | --- | --- | --- | --- | --- | --- | --- | --- | --- | --- | --- | --- | --- | --- | --- | --- | --- |
| CC[C@H](NC1=C2N=C[NH]C2=NC=N1)C/3=N/C4=C(C(=CC=C4)F)C(=O)N3C5=CC=CC=C5 | 116 | 119 | 139 | 122 | 125 | 116 | 113 | 113 | 111 | 107 | 76.9 | 125 | 121 | 123 | 125 | 133 | 110 | 117 | 114 | 100 | 82.2 | 57 |  |  |  |  |  |  |  |  |  |  |  |
| N[S+]([O-])(=O)C1=C(Cl)C=C2\N=C/N[S+]([O-])(=O)C2=C1 | 94.2 | 100 | 109 | 100 | 112 | 105 | 112 | 107 | 114 | 99.5 | 101 | 101 | 105 | 106 | 112 | 112 | 108 | 102 | 105 | 112 | 105 | 105 | 109 | 109 | 119 | 122 | 114 | 121 | 118 | 119 | 109 | 116 | 124 |
| CC[C@]12CC[C@H]3[C@@H](CCC/4=C/C(=O)CC[C@H]34)[C@@H]1\C=C/[C@@]2(O)C#C | 110 | 120 | 120 | 123 | 122 | 138 | 133 | 121 | 112 | 130 | 139 | 116 | 133 | 122 | 124 | 126 | 111 | 137 | 133 | 138 | 140 | 132 | 118 | 116 | 132 | 133 | 128 | 113 | 137 | 146 | 133 | 138 | 124 |
| Cc1c(C)n(Cc2ccc(-c3ccccc3C(=O)O)cc2)c2ccc(C(=O)N[C@@H](C)c3ccc([N+](=O)[O-])cc3)cc12 | 118 | 107 | 111 | 126 | 105 | 112 | 124 | 101 | 101 | 18.7 | 12.3 | 108 | 121 | 104 | 109 | 114 | 107 | 125 | 106 | 111 | 19.2 | 16.2 | 92.6 | 107 | 106 | 103 | 115 | 116 | 102 | 86.8 | 86 | 32.2 | 35.1 |
| CNCC(O)c1ccc(O)cc1 (configuration not stated) | 96.7 | 104 | 118 | 116 | 112 | 103 | 125 | 118 | 127 | 120 | 121 | 106 | 122 | 109 | 119 | 104 | 118 | 108 | 113 | 125 | 130 | 120 | 114 | 106 | 116 | 103 | 116 | 125 | 129 | 109 | 128 | 113 | 134 |
| O=C(Nc1cccc(C(F)(F)F)c1)Nc1cc([S+](=O)([O-])NC2CC2)ccc1-c1ccsc1 | 111 | 99.2 | 102 | 105 | 104 | 97.7 | 105 | 109 | 105 | 96 | 16.5 |  |  |  |  |  |  |  |  |  |  |  |  |  |  |  |  |  |  |  |  |  |  |
| O=C(Nc1cc(Cl)cc2c1[nH]c1cnccc12)c1cccnc1 |  |  |  |  |  |  |  |  |  |  |  | 118 | 114 | 124 | 110 | 110 | 124 | 131 | 123 | 117 | 109 | 109 |  |  |  |  |  |  |  |  |  |  |  |
| O=C(O)Cn1nnc(-c2cc(N3CCC(Oc4cc(F)ccc4Br)CC3)no2)n1 | 102 | 105 | 106 | 109 | 109 | 106 | 104 | 22.9 | 22.1 | 16 | 16.6 | 83.1 | 109 | 100 | 104 | 115 | 113 | 112 | 45.2 | 31.9 | 25.4 | 22.8 | 96 | 97.7 | 97.2 | 111 | 108 | 99.6 | 106 | 34.7 | 29.9 | 24.4 | 24.6 |
| CC1=C(C)C(=O)C(C(CCCCCC(=O)O)c2ccccc2)=C(C)C1=O (configuration not stated) | 68 | 82.7 | 70.7 | 74.7 | 74.9 | 79.3 | 76.1 | 80.4 | 19.6 | 22.3 | 12.5 | 75.6 | 78.9 | 75 | 87.7 | 83.7 | 84.2 | 86.4 | 78 | 25.1 | 27.4 | 15 | 75.8 | 78.1 | 83.4 | 93.9 | 93.6 | 109 | 53.4 | 97.9 | 27.8 | 27.1 | 13.5 |
